Experimental data reported in patent US20060194837A1, “Tetrahydroisoquinoline compounds” (priority 2004, published 2006).

Assays:
human H3 receptor = molecular target: T1, human H3 receptor (Homo sapiens, UniProt Q9Y5N1); assay: H3 receptor binding (N-[3H]-α-methylhistamine displacement); settings: membranes of SK-N-MC cells expressing cloned human H3 receptor, 0.8 nM N-[3H]-α-methylhistamine, 60 min at 25° C.
T1 construct: expressed in transfected cells

human SERT = molecular target: T2, human SERT (Homo sapiens, UniProt P31645); assay: Human SERT binding (3H-citalopram displacement); settings: HEK293 membranes expressing human SERT, rt 1 h
T2 construct: expressed in transfected cells; host or cells: HEK293 membranes
Procedure: Homogenized HEK293 (Human Embryonic Kidney) membranes expressing the human SERT were incubated with ^3H-citalopram (SERT) at rt for 1 h in 50 mM Tris, 120 mM NaCl, 5 mM KCl (pH 7.4). […] The membranes were washed and the radioactivity was counted as above.

Rat SERT = molecular target: T3, Rat SERT (Rattus norvegicus, UniProt P31652); assay: Rat brain SERT binding ([3H]-citalopram displacement); settings: rat brain membranes without cerebellum, 0.6 nM [3H]-citalopram, 60 min at 25° C.; read-out: Rat SERT Ki
T3 construct: A rat brain without cerebellum (Zivic Laboratories, Inc.—Pittsburgh, Pa.) was homogenized; tissue Zivic Laboratories, Inc; host or cells: rat brain without cerebellum, membranes
Procedure: The supernatant was removed and re-centrifuged at 15,000 rpm for 30 min. […] Membranes were incubated with 0.6 nM [^3H]-Citalopram plus/minus test compounds for 60 min at 25° C. and harvested by rapid filtration over GF/C glass fiber filters (pretreated with 0.3% polyethylenimine) followed by four washes with ice-cold buffer.

T1 sequence (Q9Y5N1 whole entry): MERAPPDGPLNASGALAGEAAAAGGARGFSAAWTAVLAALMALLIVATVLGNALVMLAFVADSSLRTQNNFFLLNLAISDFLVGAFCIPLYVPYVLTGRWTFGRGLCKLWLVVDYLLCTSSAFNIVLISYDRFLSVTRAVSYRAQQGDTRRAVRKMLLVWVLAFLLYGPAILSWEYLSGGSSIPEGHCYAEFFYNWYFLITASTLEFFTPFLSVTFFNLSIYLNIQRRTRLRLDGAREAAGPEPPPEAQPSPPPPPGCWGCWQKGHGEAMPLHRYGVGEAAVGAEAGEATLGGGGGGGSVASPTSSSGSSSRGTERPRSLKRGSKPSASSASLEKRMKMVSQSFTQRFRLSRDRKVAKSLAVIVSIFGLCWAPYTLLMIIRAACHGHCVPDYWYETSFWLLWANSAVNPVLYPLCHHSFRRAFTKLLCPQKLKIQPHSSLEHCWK
T3 sequence (P31652 whole entry): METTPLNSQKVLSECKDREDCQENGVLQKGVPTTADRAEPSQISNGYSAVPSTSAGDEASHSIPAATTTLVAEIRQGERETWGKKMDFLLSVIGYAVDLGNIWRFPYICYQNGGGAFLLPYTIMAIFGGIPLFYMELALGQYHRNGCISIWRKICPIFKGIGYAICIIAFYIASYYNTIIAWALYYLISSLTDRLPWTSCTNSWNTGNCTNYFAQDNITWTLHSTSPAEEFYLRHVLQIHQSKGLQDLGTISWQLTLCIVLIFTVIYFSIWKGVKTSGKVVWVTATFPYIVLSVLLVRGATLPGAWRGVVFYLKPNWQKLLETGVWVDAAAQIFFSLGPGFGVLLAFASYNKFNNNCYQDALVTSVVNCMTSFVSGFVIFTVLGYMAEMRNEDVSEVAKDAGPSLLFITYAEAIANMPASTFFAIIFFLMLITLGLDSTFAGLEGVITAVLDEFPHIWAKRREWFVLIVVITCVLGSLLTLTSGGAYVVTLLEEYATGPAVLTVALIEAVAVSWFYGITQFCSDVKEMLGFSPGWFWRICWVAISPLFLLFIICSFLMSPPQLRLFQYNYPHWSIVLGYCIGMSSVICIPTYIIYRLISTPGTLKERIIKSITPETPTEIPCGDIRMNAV
T2 sequence (P31645 whole entry): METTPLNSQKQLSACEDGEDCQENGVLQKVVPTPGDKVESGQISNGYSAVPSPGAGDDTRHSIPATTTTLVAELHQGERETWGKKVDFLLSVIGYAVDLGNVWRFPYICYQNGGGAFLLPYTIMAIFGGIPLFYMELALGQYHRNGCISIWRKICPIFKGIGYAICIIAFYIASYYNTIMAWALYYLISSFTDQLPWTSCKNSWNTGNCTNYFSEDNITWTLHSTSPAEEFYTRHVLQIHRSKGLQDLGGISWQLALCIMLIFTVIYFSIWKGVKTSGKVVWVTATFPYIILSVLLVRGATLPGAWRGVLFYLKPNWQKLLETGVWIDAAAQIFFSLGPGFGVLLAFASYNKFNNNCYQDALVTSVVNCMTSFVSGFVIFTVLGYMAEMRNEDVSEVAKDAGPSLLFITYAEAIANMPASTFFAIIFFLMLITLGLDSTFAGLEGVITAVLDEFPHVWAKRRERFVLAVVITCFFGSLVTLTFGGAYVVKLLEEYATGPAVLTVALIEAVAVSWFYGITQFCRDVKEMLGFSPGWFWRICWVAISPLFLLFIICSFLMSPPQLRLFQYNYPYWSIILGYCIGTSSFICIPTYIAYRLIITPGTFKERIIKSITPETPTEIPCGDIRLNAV

Row | Ki (human H3 receptor) | Ki (human SERT) | Ki (Rat SERT) | Compound
1 | 7 nM | 6 nM | 10 nM | COc1ccc(C2CN(C)Cc3cc(OCCCN4CCCC(C(F)(F)F)C4)ccc32)cc1 (stereo not drawn) [Example 25, 4-(4-Methoxy-phenyl)-2-methyl-7-[3-(3-trifluoromethyl-piperidin-1-yl)-propoxy]-1,2,3,4-tetrahydro-isoquinoline]
2 | 12 nM | 5 nM | 2 nM | COc1ccc(C2CN(C)Cc3cc(OCCCN4CCC(CCO)CC4)ccc32)cc1 (stereo not drawn) [Example 26, 2-(1-{3-[4-(4-Methoxy-phenyl)-2-methyl-1,2,3,4-tetrahydro-isoquinolin-7-yloxy]-propyl}-piperidin-4-yl)-ethanol]
3 | 10 nM | 2 nM | 2 nM | CCN1CCN(CCCOc2ccc3c(c2)CN(C)CC3c2ccc(OC)cc2)CC1 (stereo not drawn) [Example 198, 7-[3-(4-Ethyl-piperazin-1-yl)-propoxy]-4-(4-methoxy-phenyl)-2-methyl-1,2,3,4-tetrahydro-isoquinoline]
4 | 1 nM | 11 nM | 11 nM | COc1cccc(C2CN(C)Cc3cc(OCC4CCN(C(C)C)CC4)ccc32)c1 (stereo not drawn) [Example 91, 7-(1-Isopropyl-piperidin-4-ylmethoxy)-4-(3-methoxy-phenyl)-2-methyl-1,2,3,4-tetrahydro-isoquinoline]
5 | 3 nM | 2 nM | 2 nM | COc1ccc(C2CN(C)Cc3cc(OCCCN4CCC[C@@H]4CO)ccc32)cc1 (stereo partly drawn) [Example 30, (1-{3-[4-(4-Methoxy-phenyl)-2-methyl-1,2,3,4-tetrahydro-isoquinolin-7-yloxy]-propyl}-pyrrolidin-(2R)-yl)-methanol]
6 | 11 nM | 3 nM | 5 nM | CSc1ccc(C2CN(C)Cc3cc(OCC4CCN(C5CCC5)CC4)ccc32)cc1 (stereo not drawn) [Example 104, 7-(1-Cyclobutyl-piperidin-4-ylmethoxy)-2-methyl-4-(4-methylsulfanyl-phenyl)-1,2,3,4-tetrahydro-isoquinoline]
7 | 2 nM | 5 nM | 10 nM | COc1ccc(C2CN(C)Cc3cc(OCCCN4CCN(c5ccncc5)CC4)ccc32)cc1 (stereo not drawn) [Example 204, 4-(4-Methoxy-phenyl)-2-methyl-7-[3-(4-pyridin-4-yl-piperazin-1-yl)-propoxy]-1,2,3,4-tetrahydro-isoquinoline]
8 | 7 nM | 3 nM | 2 nM | COc1ccc(C2CN(C)Cc3cc(OCCCN4CCCCC4CCO)ccc32)cc1 (stereo not drawn) [Example 36, 2-(1-{3-[4-(4-Methoxy-phenyl)-2-methyl-1,2,3,4-tetrahydro-isoquinolin-7-yloxy]-propyl}-piperidin-2-yl)-ethanol]
9 | 1 nM | 252 nM | 222 nM | COc1ccc(C2CN(C(C)(C)C)Cc3cc(OCCCN4CCCCC4)ccc32)cc1 (stereo not drawn) [Example 64, 2-tert-Butyl-4-(4-methoxy-phenyl)-7-(3-piperidin-1-yl-propoxy)-1,2,3,4-tetrahydro-isoquinoline]
10 | 3 nM | 7 nM | 7 nM | COc1ccc(C2CN(C)Cc3cc(OCC4CCN(C)CC4)ccc32)cc1 (stereo not drawn) [Example 84, 4-(4-Methoxy-phenyl)-2-methyl-7-(1-methyl-piperidin-4-ylmethoxy)-1,2,3,4-tetrahydro-isoquinoline]
11 | 25 nM | 17 nM | 6 nM | COc1ccc(C2CN(C)Cc3cc(CCCCN4CCSCC4)ccc32)cc1 (stereo not drawn) [Example 282, 4-(4-Methoxy-phenyl)-2-methyl-7-(4-thiomorpholin-4-yl-butyl)-1,2,3,4-tetrahydro-isoquinoline]
12 | 3 nM | 8 nM | 3 nM | COc1ccc(C2CN(C)Cc3cc(OCC(O)CN4CCCCC4)ccc32)cc1 (stereo not drawn) [Example 42, 1-[4-(4-Methoxy-phenyl)-2-methyl-1,2,3,4-tetrahydro-isoquinolin-7-yloxy]-3-piperidin-1-yl-propan-2-ol]
13 | 5 nM | 5 nM | 3 nM | CCOc1ccc(C2CN(C)Cc3cc(OCCCN4CCC(F)CC4)ccc32)cc1 (stereo not drawn) [Example 145, 4-(4-Ethoxy-phenyl)-7-[3-(4-fluoro-piperidin-1-yl)-propoxy]-2-methyl-1,2,3,4-tetrahydro-isoquinoline]
14 | 13 nM | 7 nM | 4 nM | COc1ccc(C2CN(C)Cc3cc(CCCCN4CCN(C(C)C)CC4)ccc32)cc1 (stereo not drawn) [Example 283, 7-[4-(4-Isopropyl-piperazin-1-yl)-butyl]-4-(4-methoxy-phenyl)-2-methyl-1,2,3,4-tetrahydro-isoquinoline]
15 | 4000 nM | 21 nM | 33 nM | COc1ccc(C2CN(C)Cc3cc(OCCCN4CCN(C(=O)c5ccncc5)CC4)ccc32)cc1 (stereo not drawn) [Example 4, (4-{3-[4-(4-Methoxy-phenyl)-2-methyl-1,2,3,4-tetrahydro-isoquinolin-7-yloxy]-propyl}-piperazin-1-yl)-pyridin-4-yl-methanone]
16 | 3 nM | 34 nM | 8 nM | CN1Cc2cc(OCCCN3CCC(F)CC3)ccc2C(c2ccc(Sc3ncc[nH]3)nc2)C1 (stereo not drawn) [Example 195, 7-[3-(4-Fluoro-piperidin-1-yl)-propoxy]-4-[6-(1H-imidazol-2-ylsulfanyl)-pyridin-3-yl]-2-methyl-1,2,3,4-tetrahydro-isoquinoline]
17 | 2 nM | 9 nM | 12 nM | COc1cccc(C2CN(C)Cc3cc(OCC4CCN(C)CC4)ccc32)c1 (stereo not drawn) [Example 92, 4-(3-Methoxy-phenyl)-2-methyl-7-(1-methyl-piperidin-4-ylmethoxy)-1,2,3,4-tetrahydro-isoquinoline]
18 | 3 nM | 7 nM | 4 nM | COc1ccc(C2CN(C)Cc3cc(OCCCN4CCC(F)CC4)ccc32)cc1F (racemic) [Example 142, 4-(3-Fluoro-4-methoxy-phenyl)-7-[3-(4-fluoro-piperidin-1-yl)-propoxy]-2-methyl-1,2,3,4-tetrahydro-isoquinoline]
19 | 1 nM | 4 nM | 5 nM | CCN1Cc2cc(OCCCN3CCCCC3)ccc2C(c2ccc(OC)cc2)C1 (stereo not drawn) [Example 66, 2-Ethyl-4-(4-methoxy-phenyl)-7-(3-piperidin-1-yl-propoxy)-1,2,3,4-tetrahydro-isoquinoline]
20 | 1 nM | 10 nM | 9 nM | COc1ccc(C2CN(C)Cc3cc(OC4CCN(C(C)C)CC4)ccc32)cc1 (stereo not drawn) [Example 117, 7-(1-Isopropyl-piperidin-4-yloxy)-4-(4-methoxy-phenyl)-2-methyl-1,2,3,4-tetrahydro-isoquinoline]
21 | 11 nM | 5 nM | 3 nM | COc1ccc(C2CN(C)Cc3cc(OCCCN4CCC(CO)CC4)ccc32)cc1 (stereo not drawn) [Example 22, (1-{3-[4-(4-Methoxy-phenyl)-2-methyl-1,2,3,4-tetrahydro-isoquinolin-7-yloxy]-propyl}-piperidin-4-yl)-methanol]
22 | 20 nM | 8 nM | 9 nM | CCN(CCCOc1ccc2c(c1)CN(C)CC2c1ccc(OC)cc1)CCOC (stereo not drawn) [Example 40, Ethyl-(2-methoxy-ethyl)-{3-[4-(4-methoxy-phenyl)-2-methyl-1,2,3,4-tetrahydro-isoquinolin-7-yloxy]-propyl}-amine]
23 | 30 nM | 18 nM | 30 nM | CN1Cc2cc(OCCCN3CCCCC3)ccc2C(c2ccc(OC(F)(F)F)cc2)C1 (stereo not drawn) [Example 222, 2-Methyl-7-(3-piperidin-1-yl-propoxy)-4-(4-trifluoromethoxy-phenyl)-1,2,3,4-tetrahydro-isoquinoline]
24 | 5 nM | 4 nM | 3 nM | CSc1ccc(C2CN(C)Cc3cc(OC4CCN(CCF)CC4)ccc32)cc1 (stereo not drawn) [Example 179, 7-[1-(2-Fluoro-ethyl)-piperidin-4-yloxy]-2-methyl-4-(4-methylsulfanyl-phenyl)-1,2,3,4-tetrahydro-isoquinoline]
25 | 23 nM | 8 nM | 6 nM | COc1ccc(C2CN(C)Cc3cc(CCCCN4CCOCC4)ccc32)cc1 (stereo not drawn) [Example 281, 4-(4-Methoxy-phenyl)-2-methyl-7-(4-morpholin-4-yl-butyl)-1,2,3,4-tetrahydro-isoquinoline]
26 | 2000 nM | 18 nM | 19 nM | COc1ccc(C2CN(C)Cc3cc(OCCCN4CCN(C(=O)c5cn(C)cn5)CC4)ccc32)cc1 (stereo not drawn) [Example 14, (4-{3-[4-(4-Methoxy-phenyl)-2-methyl-1,2,3,4-tetrahydro-isoquinolin-7-yloxy]-propyl}-piperazin-1-yl)-(1-methyl-1H-imidazol-4-yl)-methanone]
27 | 4 nM | 20 nM | 9 nM | CN1Cc2cc(OCCCN3CCC(F)CC3)ccc2C(c2ccc(C#N)cc2)C1 (stereo not drawn) [Example 136, 4-{7-[3-(4-Fluoro-piperidin-1-yl)-propoxy]-2-methyl-1,2,3,4-tetrahydro-isoquinolin-4-yl}-benzonitrile]
28 | 14 nM | 5 nM | 7 nM | COc1ccc(C2CN(C)Cc3cc(OCCCN4CCC(F)(F)C4)ccc32)cc1 (stereo not drawn) [Example 129, 7-[3-(3,3-Difluoro-pyrrolidin-1-yl)-propoxy]-4-(4-methoxy-phenyl)-2-methyl-1,2,3,4-tetrahydro-isoquinoline]
